As usually defined, the IC50 is the point on the concentration scale where inhibition reaches its midpoint. Read a low IC50 as higher potency. As usually defined, the solubility is how much of the substance goes into solution per volume. Low values mean little dissolved substance, high ones much dissolved substance.

In patent publication US20240287110A1, “PHOSPHATE OF TRIFLUOROMETHYL-SUBSTITUTED SULFONAMIDE COMPOUND” (CHIA TAI TIANQING PHARMACEUTICAL GROUP CO., LTD., priority 2021, published 2024) one finds IC50 and solubility data, which are given here for two compounds.

In brackets after ≈: the same amount, converted by molar mass.

One series addresses T1, BCL-2/BAK (Homo sapiens, UniProt P10415).
T1 construct: purchased Cisbio 63ADK000CB01PEH
The experiment in a line: Screening on inhibitory activity for BCL-2/BAK binding (Cisbio HTRF kit). The note with it: Tag1-BCL-2 / Tag2-BAK binding, 25° C. As for the experimental part:
A 500 nM Tag1-BCL-2 protein stock solution and a 20 μM Tag2-BAK protein stock solution were diluted to 5 nM and 120 nM respectively with a dilution buffer in a kit (manufacturer: Cisbio, Cat. No.: 63ADK000CB01PEH). […] of Tag1-BCL-2 protein diluent was added to each well, and then different compounds dissolved in DMSO were added to the wells using a nanoliter pipettor, allowing the final compound concentrations to be 200 nM to 0.0488 nM (4-fold gradient for 7 concentrations in total). Blank control wells (without enzyme) and negative control wells (with enzyme, plus vehicle DMSO) were set, and 2 replicate wells were set. Finally, 5 μL of Tag2-BAK protein diluent was added to each well, and the mixture was mixed well by centrifugation and incubated at 25° C. for 15 min. 100× anti-Tag1-Eu^3+ and 100× anti-Tag2-XL665 were both diluted to 1× working concentration with a detection buffer in the kit. Anti-Tag1-Eu^3+ and anti-Tag2-XL665 were mixed well in a 1:1 ratio, and 5 μL of the mixture was added to each well. The resulting mixture was incubated at 25° C. for 2 h or more. The plate was read using a PE Envision multi-functional microplate reader (excitation: 620 nm, emission: 665 nm), and IC50 (shown in Table 1) was calculated by four-parameter fitting.

Another series addresses T2, BCL-XL/BAK (Homo sapiens, UniProt Q07817).
T2 construct: purchased Cisbio 63ADK000CB04PEH
The series can be described thus: Screening on inhibitory activity for BCL-XL/BAK binding (Cisbio HTRF kit). The note with it: Tag1-BCL-XL / Tag2-BAK binding, 25° C. As for the experimental part: A 300 nM Tag1-BCL-XL protein stock solution and a 10 μM Tag2-BAK protein stock solution were diluted to 2 nM and 80 nM respectively with a dilution buffer in a kit (manufacturer: Cisbio, Cat. No.: 63ADK000CB04PEH). 5 μL of Tag1-BCL-XL protein diluent was added to each well, and then different compounds dissolved in DMSO were added to the wells using a nanoliter pipettor, allowing the final compound concentrations to be 2000 nM to 0.488 nM (4-fold gradient for 7 concentrations in total). Blank control wells (without enzyme) and negative control wells (with enzyme, plus vehicle DMSO) were set, and 2 replicate wells were set. Finally, 5 μL of Tag2-BAK protein diluent was added to each well, and the mixture was mixed well by centrifugation and incubated at 25° C. for 15 min. 100× anti-Tag1-Eu^3+ and 100× anti-Tag2-XL665 were both diluted to 1× working concentration with a detection buffer in the kit. Anti-Tag1-Eu^3+ and anti-Tag2-XL665 were mixed well in a 1:1 ratio, and 5 μL of the mixture was added to each well. The resulting mixture was incubated at 25° C. for 2 h or more. The plate was read using a PE Envision multi-functional microplate reader (excitation: 620 nm, emission: 665 nm), and IC50 (shown in Table 1) was calculated by four-parameter fitting.

In a further series the test system is RS4; 11 cells. The series can be described thus: Inhibitory effect on proliferation of RS4; 11 cells (CCK-8). It is filed as cell-based. The note with it: Homo sapiens, 72 h, CCK-8, 5% serum. As for the experimental part:
RS4; 11 cells in logarithmic growth phase and good cell condition were added to a centrifuge tube and centrifuged at 1500 rpm for 3 min in a low speed centrifuge. The supernatant was discarded, and 5 mL of complete medium (RPMI basic medium+10% FBS) was added using a pipette for cell resuspension. The cells were counted using a cell counter and diluted with complete medium to a cell density of 2×10^5 cells/mL, and then an equivalent amount of RPMI basic medium was added to adjust the serum concentration to 5% and the cell density to 1×10^5 cells/mL for plate seeding. The cells were seeded on a 96-well plate at […] using a multi-channel pipette and cultured in a cell incubator at 37° C., 5% CO2 with saturated humidity. After 24 h of incubation, compounds (500-0.1 nM) were loaded using a nanoliter pipettor, 2 replicate wells were set for each concentration, and cells without compound were used as negative controls. After 72 h, CCK-8 was added at 10 μL/well for incubation for 4 h, then absorbance was measured at 450 nm with an Envision plate reader, and inhibition rate was calculated. […] A dose-response curve was fitted by four-parameter analysis, with the logarithm of compound concentration as abscissa and inhibition rate as ordinate, so that IC50 was calculated (see Table 2).

The nature of series [1]: Determination of solubility in water at pH 7.4. The following applies: aqueous phosphate medium, aqueous buffer, thermodynamic from solid; pH 7.4, 25° C. It is filed as physicochemical. On the procedure: Reagents used were 0.2 M NaOH (SinoPharm lot No. 20180223) and 0.2 M phosphate (SinoPharm 20180910, pH 7.4). Instruments/equipment used included a balance (HPLC Dionex U3000, Mettler XPE105DR), pipettes (TIANBO 0.5 mL and 0.1 mL), a thermostatic CNC shaker (ZWY-240, set at 25° C. and 200 rpm).
The example compounds were tested in an aqueous medium at 25° C. An excess of each example compound was weighed out and mixed with an aliquot of the target medium in a clear glass vial. The vial was sealed with a cap and then shaken in the shaker at 25° C. as appropriate. When equilibration was completed, the sample was removed from the shaker and the final pH was measured. The suspension was filtered through a 13 mm needle-type filter and a 0.22 m Syring Filter needle-type filter (hydrophilic PTFE-SA membrane, lot No. HKS13SATQ2B). Each filter was used for only one sample. The determination was carried out after the filtrate had been suitably diluted with the same solvent as used for the stock solution. The concentration of the sample was calculated based on a calibration curve of the compound.

T2 sequence (Q07817 whole entry, species assumed): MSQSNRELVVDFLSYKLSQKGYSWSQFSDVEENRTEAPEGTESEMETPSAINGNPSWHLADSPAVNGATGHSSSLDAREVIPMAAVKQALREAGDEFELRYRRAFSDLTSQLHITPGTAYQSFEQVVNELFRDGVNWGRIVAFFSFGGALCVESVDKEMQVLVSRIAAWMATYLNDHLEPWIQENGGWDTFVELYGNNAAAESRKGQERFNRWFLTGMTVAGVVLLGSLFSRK
T1 sequence (P10415 whole entry, species assumed): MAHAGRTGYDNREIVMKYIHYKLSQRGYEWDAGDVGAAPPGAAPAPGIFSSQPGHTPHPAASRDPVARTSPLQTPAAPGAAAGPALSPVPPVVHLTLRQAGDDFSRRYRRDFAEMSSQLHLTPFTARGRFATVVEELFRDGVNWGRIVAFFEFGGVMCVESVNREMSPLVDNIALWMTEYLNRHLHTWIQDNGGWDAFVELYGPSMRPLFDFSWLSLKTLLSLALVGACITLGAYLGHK

`CC1(C)CCC(CN2CCN(c3ccc(C(=O)NS(=O)(=O)c4ccc(NC[C@H]5COCCO5)c([N+](=O)[O-])c4)c(Oc4cc5ccnc-5n(COP(=O)(O)O)c4)c3)CC2)=C(c2ccc(C(F)(F)F)cc2Cl)C1` [Example 1]: the IC50 at BCL-2/BAK is 3 nM; at BCL-XL/BAK, 328 nM; in the series on RS4; 11 cells, 15.9 nM. In addition, in series [1], the solubility was found to be 19.4 mg/mL (≈ 18.5 mM).
For `Cc1cc(C(F)(F)F)ccc1C1=C(CN2CCN(c3ccc(C(=O)NS(=O)(=O)c4ccc(NC[C@H]5COCCO5)c([N+](=O)[O-])c4)c(Oc4cc5ccnc-5n(COP(=O)(O)O)c4)c3)CC2)CCC(C)(C)C1` [Example 2], the results for the IC50 on BCL-2/BAK, on BCL-XL/BAK and with RS4; 11 cells were 2.9 nM, 251 nM and 14.8 nM, respectively. The solubility in series [1] was 2.23 mg/mL (≈ 2.17 mM).
